Measured values reported in patent US7759345B2, “Antitumoral derivatives of ET-743” (priority 2001, dated 2010).
Where two headings read alike, the source gives them in different places.

How the values were obtained:
K-562 = assay: Inhibition of cells growth by colorimetric assay (SRB), K-562; assay type: cell-based; details: for GI50: read-out: GI50 K-562
Procedure, shortened: (§1)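 SRB read-out at 490 nm after 48 h drug exposure (10 to 10^−8 μg/ml) of cells plated at 5×10^3/well and attached 18 h in drug-free RPMI 1640/10% FBS. Triplicate means give GI, TGI (cytostatic) and LC (cytotoxic).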

A-549 = assay: Inhibition of cells growth by colorimetric assay (SRB), A-549; assay type: cell-based; details: for GI50: read-out: GI50 A-549
Procedure, shortened: as §1

SK-MEL-28 = assay: Inhibition of cells growth by colorimetric assay (SRB), SK-MEL-28; assay type: cell-based; details: for GI50: read-out: GI50 MEL-28
Procedure, shortened: as §1

HT-29 = assay: Inhibition of cells growth by colorimetric assay (SRB), HT-29; assay type: cell-based; details: for GI50: read-out: GI50 HT-29
Procedure, shortened: as §1

LoVo = assay: Inhibition of cells growth by colorimetric assay (SRB), LoVo; assay type: cell-based; details: for GI50: read-out: GI50 LOVO
Procedure, shortened: as §1

LoVo-Dox = assay: Inhibition of cells growth by colorimetric assay (SRB), LoVo-Dox; assay type: cell-based; details: for GI50: read-out: GI50 LOVO-DOX
Procedure, shortened: as §1

DU-145 = assay: Inhibition of cells growth by colorimetric assay (SRB), DU-145; assay type: cell-based; details: for GI50: read-out: GI50 DU-145
Procedure, shortened: as §1

LNCaP = assay: Inhibition of cells growth by colorimetric assay (SRB), LNCaP; assay type: cell-based; details: SRB, 48 hours exposure
Procedure, shortened: as §1

SK-BR-3 = assay: Inhibition of cells growth by colorimetric assay (SRB), SK-BR-3; assay type: cell-based; details: for GI50: read-out: GI50 SK-BR3
Procedure, shortened: as §1

IGROV-1 = assay: Inhibition of cells growth by colorimetric assay (SRB), IGROV-1; assay type: cell-based; details: for GI50: read-out: GI50 IGROV
Procedure, shortened: as §1

IGROV-ET = assay: Inhibition of cells growth by colorimetric assay (SRB), IGROV-ET; assay type: cell-based; details: for GI50: read-out: GI50 IGROV-ET
Procedure, shortened: as §1

SK-OV-3 = assay: Inhibition of cells growth by colorimetric assay (SRB), SK-OV-3; assay type: cell-based; details: for GI50: read-out: GI50 SK-OV3
Procedure, shortened: as §1

PANC-1 = assay: Inhibition of cells growth by colorimetric assay (SRB), PANC-1; assay type: cell-based; details: for GI50: read-out: GI50 PANC-1
Procedure, shortened: as §1

HMEC1 = assay: Inhibition of cells growth by colorimetric assay (SRB), HMEC1; assay type: cell-based; details: for GI50: read-out: GI50 HMEC-1
Procedure, shortened: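 Using sulforhodamine B, cell growth and viability are quantified after a 48 h drug exposure of cells maintained in RPMI 1640/10% FBS at 37 °C, 5% CO2. Concentrations span 10 to 10^−8 μg/ml; optical density is read at 490 nm.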

Liver = assay: In vitro toxicity, Liver
Source text: (§2) Toxicity was asssessed by the methods reported in Toxicology in Vitro, 15 (2001) 571-577, J. Luber Narod et al.: “Evaluation of the use of in vitro methodolodies as tools for screening new compounds for potential in vivo toxicity”.

Heart = assay: In vitro toxicity, Heart
Source text: as §2

Myelo = assay: In vitro toxicity, Myelo
Source text: as §2

Kidney = assay: In vitro toxicity, Kidney
Source text: as §2

Skeletal = assay: In vitro toxicity, Skeletal
Source text: as §2

[1] = LOVO-DOX, SRB, 48 hours exposure
[2] = IGROV-ET, SRB, 48 hours exposure

COc1cc2c(cc1OC(=O)C(F)(F)C(F)(F)C(F)(F)F)CCN[C@]21CS[C@@H]2c3c(OC(C)=O)c(C)c4c(c3[C@H](COC1=O)N1C2[C@H]2c3c(cc(C)c(OC)c3O)C[C@@H]([C@@H]1O)N2C)OCO4 (stereo partly shown) [Compound 74]
GI50 (K-562; Homo sapiens, K562, 48 h): 0.0526 nM
LC50 (50% cell killing) (K-562; Homo sapiens, K562, 48 h, read-out: LC50 K-562, K-562, SRB, 48 hours exposure): 0.661 nM
TGI K-562 (K-562; K-562, SRB, 48 hours exposure): 2.10E-10
TGI A-549 (A-549; A-549, SRB, 48 hours exposure): 9.04E-10
GI50 (A-549; Homo sapiens, A549, 48 h): 0.399 nM
LC50 (concentration for 50% cell killing) (A-549; Homo sapiens, A549, 48 h, read-out: LC50 A-549, A-549, SRB, 48 hours exposure): 6.38 nM
GI50 (SK-MEL-28; Homo sapiens, SK-MEL-28, 48 h): 0.275 nM
CC50 (SK-MEL-28; Homo sapiens, SK-MEL-28, 48 h, read-out: LC50 MEL-28, MEL-28, SRB, 48 hours exposure): 0.994 nM
TGI MEL-28 (SK-MEL-28; MEL-28, SRB, 48 hours exposure): 5.22E-10
TGI HT-29 (HT-29; HT-29, SRB, 48 hours exposure): 8.35E-10
GI50 (HT-29; Homo sapiens, HT-29, 48 h): 0.354 nM
LC50 (concentration for 50% cell killing) (HT-29; Homo sapiens, HT-29, 48 h, read-out: LC50 HT-29, HT-29, SRB, 48 hours exposure): 10400 nM
GI50 (LoVo; Homo sapiens, LoVo, 48 h): 0.369 nM
LC50 (concentration for 50% cell killing) (LoVo; Homo sapiens, LoVo, 48 h, read-out: LC50 LOVO, LOVO, SRB, 48 hours exposure): 11 nM
TGI LOVO (LoVo; LOVO, SRB, 48 hours exposure): 1.16E-09
GI50 (LoVo-Dox; Homo sapiens, 48 h): 6.31 nM
CC50 (LoVo-Dox; Homo sapiens, 48 h, read-out: LC50 LOVO-DOX, LOVO-DOX, SRB, 48 hours exposure): 359 nM
TGI LOVO-DOX (LoVo-Dox; [1]): 6.33E-08
TGI DU-145 (DU-145; DU-145, SRB, 48 hours exposure): 7.61E-10
GI50 (DU-145; Homo sapiens, DU-145, 48 h): 0.366 nM
CC50 (DU-145; Homo sapiens, DU-145, 48 h, read-out: LC50 DU-145, DU-145, SRB, 48 hours exposure): 2790 nM
GI50 (LNCaP; Homo sapiens, LNCaP, 48 h, read-out: GI50 LNCAP, LNCAP): 0.129 nM
CC50 (LNCaP; Homo sapiens, LNCaP, 48 h, read-out: LC50 LNCAP, LNCAP): 0.564 nM
TGI LNCAP (LNCaP; LNCAP): 2.69E-10
GI50 (SK-BR-3; Homo sapiens, SK-BR-3, 48 h): 0.275 nM
CC50 (SK-BR-3; Homo sapiens, SK-BR-3, 48 h, read-out: LC50 SK-BR3, SK-BR3, SRB, 48 hours exposure): 4.18 nM
TGI SK-BR3 (SK-BR-3; SK-BR3, SRB, 48 hours exposure): 7.64E-10
GI50 (IGROV-1; Homo sapiens, IGROV-1, 48 h): 0.237 nM
CC50 (IGROV-1; Homo sapiens, IGROV-1, 48 h, read-out: LC50 IGROV, IGROV, SRB, 48 hours exposure): 0.911 nM
TGI IGROV (IGROV-1; IGROV, SRB, 48 hours exposure): 4.65E-10
GI50 (IGROV-ET; Homo sapiens, 48 h): 1.76 nM
CC50 (IGROV-ET; Homo sapiens, 48 h, read-out: LC50 IGROV-ET, IGROV-ET, SRB, 48 hours exposure): 19.7 nM
TGI IGROV-ET (IGROV-ET; [2]): 4.69E-09
GI50 (SK-OV-3; Homo sapiens, SK-OV-3, 48 h): 0.248 nM
LC50 (SK-OV-3; Homo sapiens, SK-OV-3, 48 h, read-out: LC50 SK-OV3, SK-OV3, SRB, 48 hours exposure): 1.11 nM
TGI SK-OV3 (SK-OV-3; SK-OV3, SRB, 48 hours exposure): 4.76E-10
GI50 (PANC-1; Homo sapiens, PANC-1, 48 h): 0.313 nM
LC50 (concentration for 50% net cell kill) (PANC-1; Homo sapiens, PANC-1, 48 h, read-out: LC50 PANC-1, PANC-1, SRB, 48 hours exposure): 2.55 nM
TGI PANC-1 (PANC-1; PANC-1, SRB, 48 hours exposure): 6.77E-10
TGI HMEC-1 (HMEC1; HMEC-1, SRB, 48 hours exposure): 1.45E-08
GI50 (HMEC1; Homo sapiens, HMEC-1, 48 h): 0.598 nM
LC50 (HMEC1; Homo sapiens, HMEC-1, 48 h, read-out: LC50 HMEC-1, HMEC-1, SRB, 48 hours exposure): 4700 nM
Toxicity Data Liver (Liver): 3.07E-08
Toxicity Data Heart (Heart): 2.86E-08
Toxicity Data Myelo (Myelo): 3.30E-08
Toxicity Data Kidney (Kidney): 3.05E-08
Toxicity Data Skeletal (Skeletal): 8.30E-10

C=COC(=O)Oc1cc2c(cc1OC)[C@@]1(CS[C@@H]3c4c(OC(C)=O)c(C)c5c(c4[C@H](COC1=O)N1C3[C@H]3c4c(cc(C)c(OC)c4O)C[C@@H]([C@@H]1O)N3C)OCO5)NCC2 (stereo partly shown) [Compound 75]
LC50 (50% lethal concentration) (K-562; K-562, SRB, 48 hours exposure): 4.16 nM
TGI K-562 (K-562; K-562, SRB, 48 hours exposure): 7.42E-10
GI50 (K-562; K-562, SRB, 48 hours exposure): 0.364 nM
TGI A-549 (A-549; A-549, SRB, 48 hours exposure): 8.23E-09
GI50 (A-549; A-549, SRB, 48 hours exposure): 4.26 nM
LC50 (50% lethal concentration) (A-549; A-549, SRB, 48 hours exposure, read-out: LC50 A-549): 49 nM
LC50 (concentration killing 50% of cells) (SK-MEL-28; MEL-28, SRB, 48 hours exposure): 11.7 nM
TGI MEL-28 (SK-MEL-28; MEL-28, SRB, 48 hours exposure): 4.82E-09
GI50 (SK-MEL-28; MEL-28, SRB, 48 hours exposure): 2 nM
TGI HT-29 (HT-29; HT-29, SRB, 48 hours exposure): 1.18E-08
GI50 (HT-29; HT-29, SRB, 48 hours exposure): 3.89 nM
CC50 (HT-29; HT-29, SRB, 48 hours exposure, read-out: LC50 HT-29): 120 nM
LC50 (concentration killing 50% of cells) (LoVo; LOVO, SRB, 48 hours exposure): 12 nM
TGI LOVO (LoVo; LOVO, SRB, 48 hours exposure): 4.82E-09
GI50 (LoVo; LOVO, SRB, 48 hours exposure): 2.25 nM
TGI LOVO-DOX (LoVo-Dox; [1]): 1.23E-07
GI50 (LoVo-Dox; [1]): 42.6 nM
TGI DU-145 (DU-145; DU-145, SRB, 48 hours exposure): 9.47E-10
GI50 (DU-145; DU-145, SRB, 48 hours exposure): 0.563 nM
CC50 (DU-145; DU-145, SRB, 48 hours exposure, read-out: LC50 DU-145): 8330 nM
TGI LNCAP (LNCaP; LNCAP): 8.31E-10
GI50 (LNCaP; LNCAP, read-out: GI50 LNCAP): 0.579 nM
CC50 (LNCaP; LNCAP, read-out: LC50 LNCAP): 1.19 nM
TGI SK-BR3 (SK-BR-3; SK-BR3, SRB, 48 hours exposure): 3.21E-09
GI50 (SK-BR-3; SK-BR3, SRB, 48 hours exposure): 1.2 nM
CC50 (SK-BR-3; SK-BR3, SRB, 48 hours exposure, read-out: LC50 SK-BR3): 8.58 nM
TGI IGROV (IGROV-1; IGROV, SRB, 48 hours exposure): 1.63E-09
GI50 (IGROV-1; IGROV, SRB, 48 hours exposure): 0.52 nM
CC50 (IGROV-1; IGROV, SRB, 48 hours exposure, read-out: LC50 IGROV): 10 nM
TGI IGROV-ET (IGROV-ET; [2]): 6.58E-09
GI50 (IGROV-ET; [2]): 3.38 nM
CC50 (IGROV-ET; IGROV-ET, SRB, 48 hours exposure, read-out: LC50 IGROV-ET): 12 nM
TGI SK-OV3 (SK-OV-3; SK-OV3, SRB, 48 hours exposure): 1.04E-08
GI50 (SK-OV-3; SK-OV3, SRB, 48 hours exposure): 2.19 nM
LC50 (concentration killing 50% of cells) (PANC-1; PANC-1, SRB, 48 hours exposure): 35.9 nM
TGI PANC-1 (PANC-1; PANC-1, SRB, 48 hours exposure): 8.45E-09
GI50 (PANC-1; PANC-1, SRB, 48 hours exposure): 3.04 nM
TGI HMEC-1 (HMEC1; HMEC-1, SRB, 48 hours exposure): 5.77E-08
GI50 (HMEC1; HMEC-1, SRB, 48 hours exposure): 6.97 nM
Toxicity Data Liver (Liver): 4.11E-08
Toxicity Data Heart (Heart): 8.17E-08
Toxicity Data Myelo (Myelo): 5.85E-08
Toxicity Data Kidney (Kidney): 3.86E-08
Toxicity Data Skeletal (Skeletal): 4.06E-09
